Converted amounts (≈) assume the structure as drawn. Where two headings read alike, the source gives them in different places.
Legend:
[1] = Vapor-diffusion-into-solution crystallization, solid form after evaporation; type: physicochemical
From the text: The open vials were placed in a larger container with anti-solvent and the vapors were allowed to diffuse into the cannabidiol solution for two weeks. The effect of the anti-solvent, however, was too low to induce any precipitation of cannabidiol and, therefore, it was decided to evaporate the mother liquors and analyze the remaining solids. Crystalline solid was only found after evaporation of the Toluene/2,2,4-Trimethylepentane solution.

[2] = Stability studies of CBD prepared via Protocol 3 (crude, pure, 2x recrystallized; 5° C., 25° C./60% RH, 40° C./75% RH); type: physicochemical
[3] = Cannabidiol solubility in neat solvents and mixtures, isooctane solubility curve; type: physicochemical; conditions: for solubility: read-out: Solubility at RT
From the text: Isooctane was selected as the final crystallization solvent due the low solubility and similar properties to heptane, i.e., low viscosity and boiling point relative to other higher hydrocarbons (Table 33). Based on the solubility and desire to maximize yield, an isooctane volume of 4.0 L/kg was selected as an appropriate crystallization concentration. Prior to crystallization, it was desired to fully dissolve the CBD in isooctane and filter the process stream. […] The isolation temperature of −20° C. was chosen to maximize the yield of the CBD from the final crystallization.

[4] = Cooling crystallization, XRPD before and after AAC; type: physicochemical
Procedure: Cooling crystallizations were performed by preparing clear solutions of CBD with a maximum concentration of approximately 60 mg/mL. The solutions were slowly cooled to 0° C. and kept at this temperature for 48 hours. Precipitated solids were collected, dried under ambient conditions, and analyzed by XRPD. If no solids had precipitated, the mother liquors were allowed to slowly evaporate and the remaining solids were analyzed by XRPD. All solids were exposed to accelerated aging conditions for 48 hours and analyzed again by XRPD. Cannabidiol precipitated upon cooling from pentane and heptane. […] When no XRPD record was generated, the field is defined as “Not Applicable” (N/A).

[5] = Liquid diffusion crystallization, solid form by HT-XRPD; type: physicochemical
Procedure: A solution of cannabidiol of about 75 mg/mL was prepared and a layer of anti-solvent was carefully added to the vial. These experiments were performed with water as anti-solvent because of the larger difference in density between solvent and anti-solvent.

[6] = Solubility of CBD in crude CBD mother liquor and heptane as a function of temperature (Crystal 16); conditions: CBD concentration of ca. 296 mg/ml (3.5 L/kg), crude CBD mother liquor
From the text: To determine an appropriate seeding temperature of CBD, a Crystal 16 instrument was employed to measure the solubility in crude CBD mother liquor, a mixture of heptane and process impurities, and pure heptane.

[7] = solvent 1,4-Dioxane, anti-solvent 2,2,4-Trimethylpentane
[8] = solvent 1,4-Dioxane, anti-solvent Water
[9] = solvent 2-Methoxyethanol, anti-solvent 2,2,4-Trimethylpentane
[10] = solvent 4-methyl-2-pentanone, anti-solvent 2,2,4-Trimethylpentane
[11] = solvent Acetonitrile, anti-solvent Water
[12] = solvent Ethyl acetate, anti-solvent 2,2,4-Trimethylpentane
[13] = solvent Isobutanol, anti-solvent Water
[14] = solvent Isopropanol, anti-solvent Water
[15] = solvent Tetrahydrofuran, anti-solvent Water
[16] = solvent Diethanolamine, anti-solvent Water
[17] = solvent Diethylene glycol, anti-solvent Water
[18] = solvent Dimethyl sulfoxide, anti-solvent Water

C=C(C)[C@@H]1CCC(C)=C[C@H]1c1c(O)cc(CCCCC)cc1O [CBD, (1′R,2′R)-5′-methyl-4-pentyl-2′-(prop-1-en-2-yl)-1′,2′,3′,4′-tetrahydro-[1,1′-biphenyl]-2,6-diol]
Effect of accelerated aging conditions [1]: no effect on the physical appearance | XRPD of solid after evaporation ([1]; Toluene/2,2,4-Trimethylepentane solution): Form A | Precipitation? [1, 7]: No | Solid form after evaporation After AAC [1, 7]: Oil | Solid form after evaporation Before AAC [1, 7]: Oil | Precipitation? [1, 8]: No | Solid form after evaporation After AAC [1, 8]: Oil | Solid form after evaporation Before AAC [1, 8]: Oil | Precipitation? [1, 9]: No | Solid form after evaporation After AAC [1, 9]: Oil | Solid form after evaporation Before AAC [1, 9]: Oil | Precipitation? [1, 10]: No | Solid form after evaporation After AAC [1, 10]: Oil | Solid form after evaporation Before AAC [1, 10]: Oil | Precipitation? [1, 11]: No | Solid form after evaporation After AAC [1, 11]: Oil | Solid form after evaporation Before AAC [1, 11]: Oil | Precipitation? [1, 12]: No | Solid form after evaporation After AAC [1, 12]: Oil | Solid form after evaporation Before AAC [1, 12]: Oil | Precipitation? [1, 13]: No | Solid form after evaporation After AAC [1, 13]: Oil | Solid form after evaporation Before AAC [1, 13]: Oil | Precipitation? [1, 14]: No | Solid form after evaporation After AAC [1, 14]: Oil | Solid form after evaporation Before AAC [1, 14]: Oil | Precipitation? [1, 15]: No | Solid form after evaporation After AAC [1, 15]: Oil | Solid form after evaporation Before AAC [1, 15]: Oil | Precipitation? ([1]; solvent Toluene, anti-solvent 2,2,4-Trimethylpentane): No | Hygroscopicity [2]: not hygroscopic | solubility ([3]; 1,2-dimethoxyethane, organic solvent or mixture): > 100 mg/mL | solubility ([3]; 1,4-dioxane, organic solvent or mixture): > 100 mg/mL | solubility ([3]; 1-propanol, organic solvent or mixture): > 100 mg/mL | solubility ([3]; 2-butanone, organic solvent or mixture): > 100 mg/mL | solubility ([3]; 10/90 water/ethanol, organic solvent or mixture): > 100 mg/mL | solubility ([3]; 30/70 water/IPA, organic solvent or mixture): > 20 mg/mL | solubility ([3]; 30/70 water/ethanol, organic solvent or mixture): 20 to 70 mg/mL (≈ 63.6 to 223 mM) | Solubility at RT ([3]; 40/60 Water Methanol): oil | Solubility at RT ([3]; 45/65 Water Methanol): 3.4 mg/mL (≈ 10.8 mM) | Solubility at RT ([3]; 50/50 Water/Methanol): 0.3 mg/mL (≈ 0.954 mM) | solubility ([3]; 50/50 water/IPA, aqueous with cosolvent or surfactant or cyclodextrin): 10 to 20 mg/mL (≈ 31.8 to 63.6 mM) | solubility ([3]; 50/50 water/ethanol, aqueous with cosolvent or surfactant or cyclodextrin): < 5 mg/mL | solubility ([3]; ACN, organic solvent or mixture): > 100 mg/mL | solubility ([3]; CIP 100, aqueous with cosolvent or surfactant or cyclodextrin): < 1 mg/mL | solubility ([3]; CIP 200, aqueous with cosolvent or surfactant or cyclodextrin): < 1 mg/mL | solubility ([3]; DCM, organic solvent or mixture): > 100 mg/mL | solubility ([3]; EtOAc, organic solvent or mixture): > 100 mg/mL | solubility ([3]; EtOH, organic solvent or mixture): > 100 mg/mL | solubility ([3]; IPA, organic solvent or mixture): > 100 mg/mL | solubility ([3]; IPOAc, organic solvent or mixture): > 100 mg/mL | solubility ([3]; MTBE, organic solvent or mixture): > 100 mg/mL | solubility ([3]; MeOH, organic solvent or mixture): > 100 mg/mL | solubility ([3]; MeTHF saturated with water, organic solvent or mixture): > 100 mg/mL | solubility ([3]; MeTHF, organic solvent or mixture): > 100 mg/mL | solubility ([3]; NMPO, organic solvent or mixture): > 100 mg/mL | solubility ([3]; THF, organic solvent or mixture): > 100 mg/mL | solubility ([3]; acetone, organic solvent or mixture): > 100 mg/mL | solubility ([3]; anisole, organic solvent or mixture): > 100 mg/mL | solubility ([3]; chloroform, organic solvent or mixture): > 100 mg/mL | solubility ([3]; cumene, organic solvent or mixture): > 100 mg/mL | solubility ([3]; cyclohexane, organic solvent or mixture): > 100 mg/mL | solubility ([3]; diethyl ether, organic solvent or mixture): > 100 mg/mL | solubility ([3]; ethyl formate, organic solvent or mixture): > 100 mg/mL | solubility ([3]; heptane, organic solvent or mixture): 64.6 mg/mL (≈ 205 mM) | solubility ([3]; isobutanol, organic solvent or mixture): > 100 mg/mL | solubility ([3]; isooctane, organic solvent or mixture): 43.9 mg/mL (≈ 140 mM) | solubility ([3]; methylcyclohexane, organic solvent or mixture): > 100 mg/mL | solubility ([3]; n-decane, organic solvent or mixture): 36.8 mg/mL (≈ 117 mM) | solubility ([3]; n-hexane, organic solvent or mixture): > 100 mg/mL | solubility ([3]; p-xylene, organic solvent or mixture): > 100 mg/mL | solubility ([3]; silicone oil, oil or lipid, Silcone oil): 9.7 mg/mL (≈ 30.8 mM) | solubility ([3]; toluene, organic solvent or mixture): > 100 mg/mL | solubility ([3]; water): < 0.13 mg/mL | Effect of accelerated aging conditions ([4]; AAC for 48 hours): no effect on the crystallinity | XRPD of solids precipitated upon cooling ([4]; from pentane and heptane, cooled to 0° C., 48 hours): identical to starting material Form A | Dissolved at initial T? ([4]; solvent 1,2-Dimethoxyethane): Yes | Solids after T profile ([4]; solvent 1,2-Dimethoxyethane): No | Dissolved at initial T? ([4]; solvent 1,4-Dioxane): Yes | Solids after T profile ([4]; solvent 1,4-Dioxane): No | Dissolved at initial T? ([4]; solvent 2,2,4-Trimethylpentane): No | Solids after T profile ([4]; solvent 2,2,4-Trimethylpentane): No | Dissolved at initial T? ([4]; solvent Acetone): Yes | Form by HT-XRPD Dry solids ([4]; solvent Acetone): Oily | Solids after T profile ([4]; solvent Acetone): No | Dissolved at initial T? ([4]; solvent Acetonitrile): Yes | Form by HT-XRPD Dry solids ([4]; solvent Acetonitrile): Oily | Solids after T profile ([4]; solvent Acetonitrile): No | Dissolved at initial T? ([4]; solvent Chloroform): Yes | Form by HT-XRPD Dry solids ([4]; solvent Chloroform): Oily | Solids after T profile ([4]; solvent Chloroform): No | Dissolved at initial T? ([4]; solvent Cyclohexane): Yes | Solids after T profile ([4]; solvent Cyclohexane): No | Dissolved at initial T? ([4]; solvent Diethylene glycol): Yes | Form by HT-XRPD Dry solids ([4]; solvent Diethylene glycol): Oily | Solids after T profile ([4]; solvent Diethylene glycol): No | Dissolved at initial T? ([4]; solvent Ethanol): Yes | Solids after T profile ([4]; solvent Ethanol): No | Dissolved at initial T? ([4]; solvent Ethyl acetate): Yes | Form by HT-XRPD Dry solids ([4]; solvent Ethyl acetate): Oily | Solids after T profile ([4]; solvent Ethyl acetate): No | Dissolved at initial T? ([4]; solvent Heptane): Yes | Form by HT-XRPD Dry solids ([4]; solvent Heptane): Oily | Solids after T profile ([4]; solvent Heptane): No | Dissolved at initial T? ([4]; solvent Hexane): No | Solids after T profile ([4]; solvent Hexane): Yes | Dissolved at initial T? ([4]; solvent Pentane): No | Solids after T profile ([4]; solvent Pentane): Yes | Dissolved at initial T? ([4]; solvent Tetrahydrofuran): Yes | Form by HT-XRPD Dry solids ([4]; solvent Tetrahydrofuran): Oily | Solids after T profile ([4]; solvent Tetrahydrofuran): No | Dissolved at initial T? ([4]; solvent Water): No | Form by HT-XRPD Dry solids ([4]; solvent Water): Low yield | Solids after T profile ([4]; solvent Water): No | Effect of accelerated aging conditions ([5]; AAC for 2 days): no effect on the solid form | Solid form by HT-XRPD Ambient After AAC [5, 8]: oily | Solid form by HT-XRPD Ambient Before AAC [5, 8]: oily | Solid form by HT-XRPD Vacuum [5, 8]: Oily | Solids after? [5, 8]: No | Solid form by HT-XRPD Vacuum [5, 16]: Oily | Solids after? [5, 16]: Yes | Solid form by HT-XRPD Vacuum [5, 17]: Oily | Solids after? [5, 17]: Yes | Solid form by HT-XRPD Vacuum [5, 18]: Oily | Solids after? [5, 18]: Yes | XRPD of crystalline precipitates ([5]; water as anti-solvent, except 1,4-dioxane, diethylene glycol, DMSO and diethanolamine): indicative of Form A | solubility temperature of CBD [6]: 29-30 °C

From patent publication US12144795B2, “Cannabidiol compositions having modified cannabinoid profiles” (priority 2018, dated 2024)
